{"source": "patent US5668182A", "about": "“Method of calming or sedating an animal with a hydroxy benzaldehyde compound” (priority 1996, dated 1997)", "key": {"mice [1]": {"tested_on": "mice", "assay": "Inverted screen test in mice (Example 4)", "type": "in vivo", "settings": "for ED50: Mus musculus, ip", "protocol": "An inverted screen test was performed on mice to investigate the effect of vanillin and vanillin analogs on muscular function. After i.p. injection of vanillin or vehicle, each mouse was placed on a wire screen (12.8 cm×12.8 cm with a 6 mm mesh size) and the screen was inverted. A positive effect was found if the drug caused the mouse to fall from the screen within 60 seconds. A negative effect was found if the mouse had the ability to climb from the underside of the screen to the top side of the screen within the 60 second time period. Hanging from the underside of the screen without falling but without climbing to the topside at 60 seconds is recorded as a one-half positive effect per the convention of Coughenour, L. L.; Mclean, J. R.; Parker, R. B., \"A New Device for the Rapid Measurement of Impaired Motor Function in Mice,\" Pharmacol. Biochem. Behav., 6: 351-353; 1977. The test was performed at 2, 5, 10, and 30 minutes following administration of vanillin or vehicle. At each of those times, an ED-50 (and 95% confidence limits) was determined for vanillin. Six mice were used in each experimental group.\nSeveral analogs of vanillin were also examined in this test. The chemical structures and chemical names for these compounds are described hereinabove.\nThe testing of these compounds was limited both by supply of compound and by solubility. Testing was performed at 2, 5, 10, 20 minutes after administration of drug or vehicle. The vehicles used to solubilize the analogs were as follows: 10% ethanol for TBJ1, TBJ2, and TBJ3; 3% ammonium hydroxide solution in saline for FSA (pH=9); 6.7% ammonium hydroxide in saline for TB17 (pH=9.3); and 20% ethanol, 1% ammonium hydroxide solution in saline for TB34 (pH=10.0). ED-50s of compounds (and 95% confidence limits) were calculated in cases where the data permitted the calculation."}, "mice [2]": {"tested_on": "mice", "assay": "Spontaneous locomotor activity of mice (Example 3)", "type": "in vivo", "protocol": "The effect of vanillin on spontaneous locomotor activity of mice was examined. Three groups of male mice, with four mice per group, were assigned to receive a dosage of vanillin of 0, 200 or 300 mg/kg, respectively. After i.p. injection of vanillin or a control solution (0.9% NaCl in water), an injected mouse was placed by itself in a cage, the cage enclosed in a cabinet to exclude external stimuli, and locomotor activity of the mouse was monitored. Three types of movements of the mouse within the cage were measured, based upon interruptions of 16 beams of infrared light, spaced one inch (2.54 cm) apart, which traverse the cage. Interruptions of the infrared beams are detected by sensors and are recorded as \"counts\" of activity using a system obtained from Omnitech Electronics, Columbus Ohio.\nThree types of activity measures were automatically recorded by the system: (1) all interruptions of all beams were recorded as \"Total activity counts\"; (2) interruptions of two consecutive beams were recorded as \"Ambulatory activity counts\"; and (3) interruptions of four consecutive beams were recorded as \"Gross movements\".\nThe effects of doses of vanillin (200 and 300 mg/kg i.p.) was assessed and compared with locomotor activity recorded for concomitantly tested mice given only vehicle (0.9% NaCl in water). Measurement of locomotor activity was made during 10 minute intervals for 60 minutes after treatment. Due to the relatively short duration of vanillin encountered, the higher dose group also had measurements taken at three minute intervals for 24 minutes and at one minute intervals for nine minutes after treatment.\nMeans and standard errors of numbers of counts were determined for each experimental group."}}, "note": "Read-outs that look alike come from different tables or passages of the source.", "data": [{"smiles": "COc1cc(C=O)ccc1O", "note": "[vanillin, 4-hydroxy-3-methoxybenzaldehyde]", "values": [{"measurement": "ED50", "setting": "mice [1]; 2 min, 2 min post-treatment, read-out: ED-50 (95% confidence limits)", "value": 112, "unit": "mg/kg"}, {"measurement": "ED50", "setting": "mice [1]; 5 min, 5 min post-treatment, read-out: ED-50 (95% confidence limits)", "value": 104, "unit": "mg/kg"}, {"measurement": "ED50", "setting": "mice [1]; 10 min, 10 min post-treatment, read-out: ED-50 (95% confidence limits)", "value": 112, "unit": "mg/kg"}, {"measurement": "ED50", "setting": "mice [1]; 10 min, first 10 minutes after injection, read-out: ED-50", "value": "~100", "unit": "mg/kg"}, {"measurement": "ED50", "setting": "mice [1]; 0.5 h, 30 min post-treatment, read-out: ED-50 (95% confidence limits)", "value": 748, "unit": "mg/kg"}, {"measurement": "change of potency with time", "setting": "mice [1]; between 10 and 30 minutes after injection", "value": "declined precipitously"}, {"measurement": "Gross movements", "setting": "mice [2]; 200 mg/kg i.p., 0-10 min (control 83 ± 16)", "value": "86 ± 16", "unit": "counts"}, {"measurement": "Ambulatory activity counts", "setting": "mice [2]; 200 mg/kg i.p., 0-10 min (control 739 ± 108)", "value": "545 ± 62", "unit": "counts"}, {"measurement": "Total activity counts", "setting": "mice [2]; 200 mg/kg i.p., 0-10 min (control 1525 ± 281)", "value": "897 ± 201", "unit": "counts"}, {"measurement": "Gross movements", "setting": "mice [2]; 200 mg/kg i.p., 10-20 min (control 41 ± 8)", "value": "43 ± 8", "unit": "counts"}, {"measurement": "Ambulatory activity counts", "setting": "mice [2]; 200 mg/kg i.p., 10-20 min (control 461 ± 68)", "value": "291 ± 37", "unit": "counts"}, {"measurement": "Gross movements", "setting": "mice [2]; 200 mg/kg i.p., 20-30 min (control 34 ± 13)", "value": "18 ± 13", "unit": "counts"}, {"measurement": "Ambulatory activity counts", "setting": "mice [2]; 200 mg/kg i.p., 20-30 min (control 307 ± 76)", "value": "130 ± 85", "unit": "counts"}, {"measurement": "Total activity counts", "setting": "mice [2]; 200 mg/kg i.p., 20-30 min (control 582 ± 126)", "value": "481 ± 257", "unit": "counts"}, {"measurement": "Gross movements", "setting": "mice [2]; 200 mg/kg i.p., 30-40 min (control 31 ± 11)", "value": "14 ± 11", "unit": "counts"}, {"measurement": "Ambulatory activity counts", "setting": "mice [2]; 200 mg/kg i.p., 30-40 min (control 599 ± 224)", "value": "409 ± 276", "unit": "counts"}, {"measurement": "Total activity counts", "setting": "mice [2]; 200 mg/kg i.p., 30-40 min (control 635 ± 204)", "value": "410 ± 275", "unit": "counts"}, {"measurement": "Gross movements", "setting": "mice [2]; 200 mg/kg i.p., 40-50 min (control 19 ± 14)", "value": "32 ± 13", "unit": "counts"}, {"measurement": "Ambulatory activity counts", "setting": "mice [2]; 200 mg/kg i.p., 40-50 min (control 171 ± 103)", "value": "243 ± 67", "unit": "counts"}, {"measurement": "Total activity counts", "setting": "mice [2]; 200 mg/kg i.p., 40-50 min (control 268 ± 167)", "value": "413 ± 115", "unit": "counts"}, {"measurement": "Gross movements", "setting": "mice [2]; 200 mg/kg i.p., 50-60 min (control 23 ± 8)", "value": "31 ± 8", "unit": "counts"}, {"measurement": "Gross movements", "setting": "mice [2]; 300 mg/kg i.p., 0-10 min (control 83 ± 16)", "value": "75 ± 23", "unit": "counts"}, {"measurement": "Ambulatory activity counts", "setting": "mice [2]; 300 mg/kg i.p., 0-10 min (control 739 ± 108)", "value": "479 ± 150", "unit": "counts"}, {"measurement": "Gross movements", "setting": "mice [2]; 300 mg/kg i.p., 10-20 min (control 41 ± 8)", "value": "57 ± 19", "unit": "counts"}, {"measurement": "Ambulatory activity counts", "setting": "mice [2]; 300 mg/kg i.p., 10-20 min (control 461 ± 68)", "value": "298 ± 117", "unit": "counts"}, {"measurement": "Total activity counts", "setting": "mice [2]; 300 mg/kg i.p., 10-20 min (control 832 ± 105)", "value": "449 ± 155", "unit": "counts"}, {"measurement": "Gross movements", "setting": "mice [2]; 300 mg/kg i.p., 20-30 min (control 34 ± 13)", "value": "37 ± 16", "unit": "counts"}, {"measurement": "Ambulatory activity counts", "setting": "mice [2]; 300 mg/kg i.p., 20-30 min (control 307 ± 76)", "value": "245 ± 100", "unit": "counts"}, {"measurement": "Total activity counts", "setting": "mice [2]; 300 mg/kg i.p., 20-30 min (control 582 ± 126)", "value": "404 ± 176", "unit": "counts"}, {"measurement": "Gross movements", "setting": "mice [2]; 300 mg/kg i.p., 30-40 min (control 31 ± 11)", "value": "38 ± 10", "unit": "counts"}, {"measurement": "Ambulatory activity counts", "setting": "mice [2]; 300 mg/kg i.p., 30-40 min (control 599 ± 224)", "value": "270 ± 74", "unit": "counts"}, {"measurement": "Total activity counts", "setting": "mice [2]; 300 mg/kg i.p., 30-40 min (control 635 ± 204)", "value": "441 ± 121", "unit": "counts"}, {"measurement": "Gross movements", "setting": "mice [2]; 300 mg/kg i.p., 40-50 min (control 19 ± 14)", "value": "21 ± 8", "unit": "counts"}, {"measurement": "Ambulatory activity counts", "setting": "mice [2]; 300 mg/kg i.p., 40-50 min (control 171 ± 103)", "value": "244 ± 66", "unit": "counts"}, {"measurement": "Total activity counts", "setting": "mice [2]; 300 mg/kg i.p., 40-50 min (control 268 ± 167)", "value": "365 ± 108", "unit": "counts"}, {"measurement": "Gross movements", "setting": "mice [2]; 300 mg/kg i.p., 50-60 min (control 23 ± 8)", "value": "12 ± 7", "unit": "counts"}, {"measurement": "effect on smaller types of motor movements", "setting": "mice [2]; 200 and 300 mg/kg i.p.", "value": "suppressed"}, {"measurement": "effect on gross movements, such as walking", "setting": "mice [2]; any time, doses up to 300 mg/kg", "value": "not significantly affected"}, {"measurement": "persistence of some effect on locomotor activity", "setting": "mice [2]; i.p.", "value": "≥ 60", "unit": "min"}]}]}
